Experimental data: PubChem BioAssay (NCI)
Several values for one entry are separate records, joined by “and”; a condition that tells them apart may be missing. Equal values may be shown once.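 Cells were grown in 96-well plates and exposed to each compound for 48 hours at five concentrations; endpoints were interpolated linearly between bracketing concentrations, or set to the highest concentration if not reached. GI50 is the concentration that inhibits growth by half. The concentration for full growth arrest is given as TGI.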

Assays:
Assay in all cases: growth of human tumour cells (NCI), 48 h
[1] = tested on: OVCAR-3 ovarian
[2] = tested on: MDA-MB-231 breast
[3] = tested on: SNB-19 CNS
[4] = tested on: PC-3 prostate
[5] = tested on: RXF 393 renal
[6] = tested on: MCF7 breast
[7] = tested on: NCI-H522 lung
[8] = tested on: OVCAR-4 ovarian
[9] = tested on: OVCAR-8 ovarian
[10] = tested on: A549 NSCLC
[11] = tested on: SF-539 CNS
[12] = tested on: NCI-H23 lung
[13] = tested on: BT-549 breast
[14] = tested on: ACHN renal
[15] = tested on: HCT-15 colon
[16] = tested on: KM12 colon
[17] = tested on: UACC-257 melanoma
[18] = tested on: HOP-92 NSCLC
[19] = tested on: IGROV1 ovarian
[20] = tested on: HCT-116 colon
[21] = tested on: COLO 205 colon
[22] = tested on: SR leukemia
[23] = tested on: RPMI-8226 leukemia
[24] = tested on: SK-OV-3 ovarian
[25] = tested on: MALME-3M melanoma
[26] = tested on: MOLT-4 leukemia
[27] = tested on: 786-0 renal
[28] = tested on: SK-MEL-2 melanoma
[29] = tested on: M14 melanoma
[30] = tested on: MDA-MB-468 breast
[31] = tested on: HOP-62 NSCLC
[32] = tested on: T-47D breast
[33] = tested on: CAKI-1 renal
[34] = tested on: NCI-H226 lung
[35] = tested on: EKVX NSCLC
[36] = tested on: SN12C renal
[37] = tested on: A498 renal
[38] = tested on: SF-295 CNS
[39] = tested on: SF-268 CNS
[40] = tested on: SK-MEL-28 melanoma
[41] = tested on: DU-145 prostate
[42] = tested on: TK-10 renal
[43] = tested on: CCRF-CEM leukemia
[44] = tested on: MDA-MB-435
[45] = tested on: SK-MEL-5 melanoma
[46] = tested on: UO-31 renal
[47] = tested on: HS 578T breast
[48] = tested on: UACC-62 melanoma
[49] = tested on: HL-60(TB) leukemia
[50] = tested on: LOX IMVI melanoma
[51] = tested on: OVCAR-5 ovarian

COc1ccc2[nH]cc(-c3cc4nc(-c5cn(C)c6ncccc56)cc(N)n4n3)c2c1 gave a GI50 [1] of 12.5 µM, a TGI [1] of over 100 µM and a GI50 [2] of 2.33 µM. It also gave a TGI [2] of 5.2 µM, a GI50 [3] of 8.67 µM and a TGI [3] of 32.2 µM. The GI50 [4] was 6.67 µM, the TGI [4] was over 100 µM and the GI50 [5] was 1.67 µM. It also gave a TGI [5] of 3.27 µM, a GI50 [6] of 2.01 µM and a TGI [6] of 4.94 µM. For the same compound, the GI50 [7] was 4.48 µM, the TGI [7] was over 100 µM and the GI50 [8] was 2.06 µM. It also gave a TGI [8] of 5.15 µM, a GI50 [9] of 4.93 µM and a TGI [9] of over 100 µM. For the same compound, the GI50 [10] was 2.75 µM, the TGI [10] was over 100 µM and the GI50 [11] was 1.63 µM. It also gave a TGI [11] of 3.05 µM, a GI50 [12] of 6.29 µM and a TGI [12] of 24.7 µM. For the same compound, the GI50 [13] was 7.03 µM, the TGI [13] was 38.3 µM and the GI50 [14] was 3.48 µM. It also gave a TGI [14] of 12.5 µM, a GI50 [15] of 1.91 µM and a TGI [15] of 4.53 µM. The GI50 [16] was 3.41 µM, the TGI [16] was over 100 µM and the GI50 [17] was 21.5 µM. For the same compound, the TGI [17] was 55.4 µM, the GI50 [18] was 4.84 µM and the TGI [18] was 51.7 µM. The GI50 [19] was 2.12 µM, the TGI [19] was 4.93 µM and the GI50 [20] was 3.6 µM. It also gave a TGI [20] of 33.5 µM, a GI50 [21] of 4.71 µM and a TGI [21] of over 100 µM. It also gave a GI50 [22] of 2.55 µM, a TGI [22] of over 100 µM and a GI50 [23] of 3.05 µM. The TGI [23] was over 100 µM, the GI50 [24] was 52.8 µM and the TGI [24] was over 100 µM. It also gave a GI50 [25] of 5.02 µM, a TGI [25] of 18.3 µM and a GI50 [26] of 1.79 µM. The TGI [26] was over 100 µM, the GI50 [27] was 1.54 µM and the TGI [27] was 2.92 µM. It also gave a GI50 [28] of 19.3 µM, a TGI [28] of 53.2 µM and a GI50 [29] of 4.56 µM. For the same compound, the TGI [29] was 32.3 µM, the GI50 [30] was 1.53 µM and the TGI [30] was 3.12 µM. For the same compound, the GI50 [31] was 10.2 µM, the TGI [31] was over 100 µM and the GI50 [32] was 5.77 µM. The TGI [32] was 90.1 µM, the GI50 [33] was 4.03 µM and the TGI [33] was 23.5 µM. For the same compound, the GI50 [34] was 20.4 µM, the TGI [34] was 57.2 µM and the GI50 [35] was 8.55 µM. It also gave a TGI [35] of 62.3 µM, a GI50 [36] of 6.93 µM and a TGI [36] of 23.8 µM. It also gave a GI50 [37] of 25.3 µM, a TGI [37] of 49.4 µM and a GI50 [38] of 1.68 µM. The TGI [38] was 3.26 µM, the GI50 [39] was 13.5 µM and the TGI [39] was over 100 µM. It also gave a GI50 [40] of 10.8 µM, a TGI [40] of 23.4 µM and a GI50 [41] of 6.36 µM. For the same compound, the TGI [41] was over 100 µM, the GI50 [42] was 19.1 µM and the TGI [42] was over 100 µM. The GI50 [43] was 2.56 µM, the TGI [43] was over 100 µM and the GI50 [44] was 10.8 µM. The TGI [44] was 27.8 µM, the GI50 [45] was 6.18 µM and the TGI [45] was 19.3 µM. The GI50 [46] was 3.59 µM, the TGI [46] was 17.5 µM and the GI50 [47] was 20.3 µM. For the same compound, the TGI [47] was 64.6 µM, the GI50 [48] was 14.2 µM and the TGI [48] was 27.8 µM. For the same compound, the GI50 [49] was 1.48 µM, the TGI [49] was 4.78 µM and the GI50 [50] was 2.02 µM. For the same compound, the TGI [50] was 3.6 µM, the GI50 [51] was 4.66 µM and the TGI [51] was 19.2 µM.
Compound CCN(CCNS(C)(=O)=O)c1ccc(N)c(C)c1 has a GI50 [30] of 2.11 µM and a TGI [30] of 5.64 µM.
CCN(Cc1c(F)cccc1OC)c1ccc(CO)c(Cl)c1 gave a GI50 [30] of 0.0285 µM and a TGI [30] of 0.144 µM.
O=c1[nH]c(-c2cccc(F)c2)cc2cc(F)ccc12 gave a GI50 [30] of 1.89 µM and a TGI [30] of over 100 µM.
C=CC12CCN(CC1)C(C(O)c1ccnc3ccc(OC)cc13)C2 (stereo not drawn) was tested, and the GI50 [30] was 57.4 µM and the TGI [30] was over 100 µM.
Compound Nc1c(C(=O)Nc2ccccn2)sc2nc3c(cc12)C(=O)CCC3 has a GI50 [30] of 0.269 µM and a TGI [30] of 67.3 µM.
In the case of COc1cc(/C=C2\CCCCC3=C2N=C2SC(C)=CN2C3c2cc(OC)c(OC)c(OC)c2)cc(OC)c1OC (stereo not drawn), the GI50 [30] is reported as 0.185 µM and the TGI [30] is reported as over 100 µM.
Compound NC(N)=Nc1nc2ccccc2o1 has a GI50 [30] of over 100 µM and a TGI [30] of over 100 µM.
Work on NC(=O)c1cc(I)ccc1NC(=O)/C=C/c1ccccc1 yielded a GI50 [30] of 0.732 µM and a TGI [30] of 47.1 µM.
COc1ccc(/C=C\c2cc(OC)c(OC)c(OC)c2)cc1OCC(=O)O showed a GI50 [30] of 49.3 µM and a TGI [30] of over 100 µM.
Work on NNc1ncnc2nc[nH]c12 yielded a GI50 [30] of 5.79 µM and a TGI [30] of over 100 µM.
CCn1cc(-c2ccnc3[nH]c(-c4cccc(CN(C)C)c4)cc23)c(-c2ccc(NC(=O)N(C)C)cc2)n1 was tested, and the GI50 [30] was 0.0504 µM and 0.282 µM and the TGI [30] was 16.7 µM and > 10 µM.
Compound C[C@H](CCOc1cccc(CC(=O)O)c1)N(Cc1cccc(C(F)(F)F)c1Cl)CC(c1ccccc1)c1ccccc1 has a GI50 [30] of 6.73 µM and a TGI [30] of 24 µM.
In the case of O=C(Nc1nc(-c2c[nH]c3ccccc23)cs1)c1n[nH]c(=O)c2ccccc12, the GI50 [30] is reported as 77.9 µM and the TGI [30] is reported as over 100 µM.
